Assay results published in patent US20090188496A1, “INHALABLE TIOTROPIUM AND CONTAINER THEREFOR” (Boehringer Ingelheim International GmbH, priority 2003, published 2009).

Assay: In-use stability test of FPD, commercial capsules in opened blister, 40° C. and 75% Rh
Assay type: physicochemical
Conditions: conclusion of tests S1-5 and HBS1-3
Experimental: (§1) From the blister holding 5 capsules one capsule was withdrawn and the remaining 4 capsules were put 4 days into 40° C. and 75% Rh. The blister containing the 4 capsules was then put in an exicator for 2 h before tests were performed. The test was performed with 4 kPa pressure drop over the […]® at room temperature and laboratory ambient conditions.
as §1, with “put 13” for “put 4”
as §1, with “put 21” for “put 4”

For `C[N+]1(C)[C@@H]2C[C@@H](OC(=O)C(O)(c3cccs3)c3cccs3)C[C@H]1[C@@H]1O[C@@H]12` [tiotropium], the “Sensitivity of FPD to moisture” value was “extremely sensitive to moisture”.
